Results: ChEMBL document CHEMBL4138123, “Design, synthesis and biological evaluation of novel pyrazolochalcones as potential modulators of PI3K/Akt/mTOR pathway and inducers of apoptosis in breast cancer cells” (Eur J Med Chem, 2017)

What was measured:
Assay type in all cases: functional
OVCAR-3 [1] = experiment: Cytotoxicity against human OVCAR3 cells assessed as cell growth at 1 uM after 48 hrs by sulforhodamine B assay relative to control; settings: OVCAR-3, 48 h, read-out: Activity
T47D = experiment: Cytotoxicity against human T47D cells assessed as cell growth at 0.1 uM after 48 hrs by sulforhodamine B assay relative to control; settings: read-out: Activity
NCI-H23 [2] = experiment: Cytotoxicity against human NCI-H23 cells assessed as growth inhibition after 48 hrs by sulforhodamine B assay; settings: NCI-H23, 48 h; for CC50: read-out: LC50 (the source's name)
SR = experiment: Cytotoxicity against human SR cells assessed as cell growth at 1 uM after 48 hrs by sulforhodamine B assay relative to control; settings: read-out: Activity
PC-3 = experiment: Cytotoxicity against human PC3 cells assessed as cell growth at 10 uM after 48 hrs by sulforhodamine B assay relative to control; settings: PC-3, 48 h, read-out: Activity
SK-MEL-2 = experiment: Cytotoxicity against human SK-MEL-2 cells assessed as growth inhibition after 48 hrs by sulforhodamine B assay; settings: SK-MEL-2, 48 h
SK-MEL-28 = experiment: Cytotoxicity against human SK-MEL-28 cells assessed as cell growth at 10 uM after 48 hrs by sulforhodamine B assay relative to control; settings: SK-MEL-28, 48 h, read-out: Activity
NCI-H522 = experiment: Cytotoxicity against human NCI-H522 cells assessed as cell growth at 100 uM after 48 hrs by sulforhodamine B assay relative to control; settings: NCI-H522, 48 h, read-out: Activity
OVCAR-3 [3] = experiment: Cytotoxicity against human OVCAR3 cells assessed as cell growth at 0.1 uM after 48 hrs by sulforhodamine B assay relative to control; settings: OVCAR-3, 48 h, read-out: Activity
MOLT-4 = experiment: Cytotoxicity against human MOLT4 cells assessed as cell growth at 1 uM after 48 hrs by sulforhodamine B assay relative to control; settings: MOLT-4, 48 h, read-out: Activity
786-0 = experiment: Cytotoxicity against human 786-0 cells assessed as cell growth at 1 uM after 48 hrs by sulforhodamine B assay relative to control; settings: 786-0, 48 h, read-out: Activity
NCI-H322M = experiment: Cytotoxicity against human NCI-H322M cells assessed as cell growth at 10 uM after 48 hrs by sulforhodamine B assay relative to control; settings: read-out: Activity
SW-620 [4] = experiment: Cytotoxicity against human SW620 cells assessed as cell growth at 100 uM after 48 hrs by sulforhodamine B assay relative to control; settings: SW-620, 48 h, read-out: Activity
Hs-578T = experiment: Cytotoxicity against human Hs 578T cells assessed as cell growth at 1 uM after 48 hrs by sulforhodamine B assay relative to control; settings: read-out: Activity
SN12C = experiment: Cytotoxicity against human SN12C cells assessed as cell growth at 100 uM after 48 hrs by sulforhodamine B assay relative to control; settings: read-out: Activity
IGROV-1 = experiment: Cytotoxicity against human IGROV1 cells assessed as cell growth at 100 uM after 48 hrs by sulforhodamine B assay relative to control; settings: IGROV-1, 48 h, read-out: Activity
SF-268 = experiment: Cytotoxicity against human SF268 cells assessed as growth inhibition after 48 hrs by sulforhodamine B assay; settings: SF-268, 48 h; for CC50: read-out: LC50 (the source's name)
MDA-MB-231 = experiment: Cytotoxicity against human MDA-MB-231 cells assessed as cell growth at 1 uM after 48 hrs by sulforhodamine B assay relative to control; settings: MDA-MB-231, 48 h, read-out: Activity
SNB-19 = experiment: Cytotoxicity against human SNB19 cells assessed as cell growth at 10 uM after 48 hrs by sulforhodamine B assay relative to control; settings: SNB-19, 48 h, read-out: Activity
U-251 = experiment: Cytotoxicity against human U251 cells assessed as cell growth at 0.1 uM after 48 hrs by sulforhodamine B assay relative to control; settings: U-251, 48 h, read-out: Activity
MCF7 = experiment: Cytotoxicity against human MCF7 cells assessed as cell growth at 0.01 uM after 48 hrs by sulforhodamine B assay relative to control; settings: MCF7, 48 h, read-out: Activity
CCRF-CEM [5] = experiment: Cytotoxicity against human CCRF-CEM cells assessed as growth inhibition after 48 hrs by sulforhodamine B assay
NCI-H23 [6] = experiment: Cytotoxicity against human NCI-H23 cells assessed as cell growth at 10 uM after 48 hrs by sulforhodamine B assay relative to control; settings: NCI-H23, 48 h, read-out: Activity
HL-60(TB) = experiment: Cytotoxicity against human HL-60(TB) cells assessed as cell growth at 10 uM after 48 hrs by sulforhodamine B assay relative to control; settings: HL-60, 48 h, read-out: Activity
SW-620 [7] = experiment: Cytotoxicity against human SW620 cells assessed as cell growth at 0.01 uM after 48 hrs by sulforhodamine B assay relative to control; settings: SW-620, 48 h, read-out: Activity
HOP-62 [8] = experiment: Cytotoxicity against human HOP62 cells assessed as growth inhibition after 48 hrs by sulforhodamine B assay; settings: HOP-62, 48 h
NCI-H460 = experiment: Cytotoxicity against human NCI-H460 cells assessed as cell growth at 10 uM after 48 hrs by sulforhodamine B assay relative to control; settings: NCI-H460, 48 h, read-out: Activity
HCT-15 = experiment: Cytotoxicity against human HCT15 cells assessed as cell growth at 1 uM after 48 hrs by sulforhodamine B assay relative to control; settings: HCT-15, 48 h, read-out: Activity
UO-31 = experiment: Cytotoxicity against human UO31 cells assessed as cell growth at 0.1 uM after 48 hrs by sulforhodamine B assay relative to control; settings: UO-31, 48 h, read-out: Activity
RPMI-8226 = experiment: Cytotoxicity against human RPMI8226 cells assessed as cell growth at 0.01 uM after 48 hrs by sulforhodamine B assay relative to control; settings: RPMI-8226, 48 h, read-out: Activity
KM12 = experiment: Cytotoxicity against human KM12 cells assessed as cell growth at 10 uM after 48 hrs by sulforhodamine B assay relative to control; settings: KM12, 48 h, read-out: Activity
M14 = experiment: Cytotoxicity against human M14 cells assessed as cell growth at 10 uM after 48 hrs by sulforhodamine B assay relative to control; settings: M14, 48 h, read-out: Activity
CCRF-CEM [9] = experiment: Cytotoxicity against human CCRF-CEM cells assessed as cell growth at 100 uM after 48 hrs by sulforhodamine B assay relative to control; settings: read-out: Activity
MDA-MB-468 = experiment: Cytotoxicity against human MDA-MB-468 cells assessed as growth inhibition after 48 hrs by sulforhodamine B assay; settings: MDA-MB-468, 48 h
HOP-62 [10] = experiment: Cytotoxicity against human HOP62 cells assessed as cell growth at 10 uM after 48 hrs by sulforhodamine B assay relative to control; settings: HOP-62, 48 h, read-out: Activity

COc1cc(-c2cc(/C=C/C(=O)c3ccc(F)c(F)c3)[nH]n2)cc(OC)c1OC
growth at 1 µM (OVCAR-3 [1]): 95% | growth at 0.1 µM (T47D): 93% | TGI (NCI-H23 [2]): 8.5 µM | CC50 (NCI-H23 [2]): > 100 µM | growth at 1 µM (SR): 84% | growth at 10 µM (PC-3): -23% | LC50 (concentration killing 50% of cells) (SK-MEL-2): 41.1 µM | TGI (SK-MEL-2): 5.89 µM | growth at 10 µM (SK-MEL-28): 32% | growth at 100 µM (NCI-H522): -53% | growth at 0.1 µM (OVCAR-3 [3]): 104% | growth at 1 µM (MOLT-4): 91% | growth at 1 µM (786-0): 93% | growth at 10 µM (NCI-H322M): 18% | growth at 100 µM (SW-620 [4]): 1% | growth at 1 µM (Hs-578T): 86% | growth at 100 µM (SN12C): -22% | growth at 100 µM (IGROV-1): -1% | TGI (SF-268): > 100 µM | CC50 (SF-268): > 100 µM | growth at 1 µM (MDA-MB-231): 74% | growth at 10 µM (SNB-19): 25% | growth at 0.1 µM (U-251): 96% | growth at 0.01 µM (MCF7): 91% | LC50 (concentration killing 50% of cells) (CCRF-CEM [5]): > 100 µM | TGI (CCRF-CEM [5]): 47.2 µM | growth at 10 µM (NCI-H23 [6]): -7% | growth at 10 µM (HL-60(TB)): -29% | growth at 0.01 µM (SW-620 [7]): 95% | LC50 (HOP-62 [8]): > 100 µM | TGI (HOP-62 [8]): > 100 µM | growth at 10 µM (NCI-H460): -9% | growth at 1 µM (HCT-15): 88% | growth at 0.1 µM (UO-31): 86% | growth at 0.01 µM (RPMI-8226): 94% | growth at 10 µM (KM12): 3% | growth at 10 µM (M14): 3% | growth at 100 µM (CCRF-CEM [9]): -4% | GI50 (MDA-MB-468): 2.22 µM | LC50 (MDA-MB-468): > 100 µM | TGI (MDA-MB-468): 9.47 µM | growth at 10 µM (HOP-62 [10]): 25%

COc1ccc(C(=O)/C=C/c2cc(-c3ccc(OC)c(OC)c3)n[nH]2)cc1OC
growth at 1 µM (OVCAR-3 [1]): 88% | growth at 0.1 µM (T47D): 86% | GI50 (NCI-H23 [2]): 2.25 µM | TGI (NCI-H23 [2]): 5.7 µM | CC50 (NCI-H23 [2]): > 100 µM | growth at 1 µM (SR): 5% | growth at 10 µM (PC-3): 5% | GI50 (SK-MEL-2): 2.46 µM | TGI (SK-MEL-2): 5.17 µM | growth at 10 µM (SK-MEL-28): -38% | growth at 100 µM (NCI-H522): -75% | growth at 0.1 µM (OVCAR-3 [3]): 109% | growth at 1 µM (MOLT-4): 73% | growth at 1 µM (786-0): 78% | growth at 10 µM (NCI-H322M): -9% | growth at 100 µM (SW-620 [4]): -27% | growth at 1 µM (Hs-578T): 87% | growth at 100 µM (SN12C): -37% | growth at 100 µM (IGROV-1): -2% | GI50 (SF-268): 2.09 µM | TGI (SF-268): 9.82 µM | CC50 (SF-268): > 100 µM | growth at 1 µM (MDA-MB-231): 76% | growth at 10 µM (SNB-19): -48% | growth at 0.1 µM (U-251): 89% | growth at 0.01 µM (MCF7): 85% | GI50 (CCRF-CEM [5]): 0.364 µM | TGI (CCRF-CEM [5]): 5.52 µM | growth at 10 µM (NCI-H23 [6]): -30% | growth at 10 µM (HL-60(TB)): 4% | growth at 0.01 µM (SW-620 [7]): 96% | GI50 (HOP-62 [8]): 1.73 µM | TGI (HOP-62 [8]): 5.6 µM | growth at 10 µM (NCI-H460): -20% | growth at 1 µM (HCT-15): 53% | growth at 0.1 µM (UO-31): 91% | growth at 0.01 µM (RPMI-8226): 98% | growth at 10 µM (KM12): -80% | growth at 10 µM (M14): -58% | growth at 100 µM (CCRF-CEM [9]): -20% | GI50 (MDA-MB-468): 1.09 µM | TGI (MDA-MB-468): 2.55 µM | growth at 10 µM (HOP-62 [10]): -25%
